Measured values taken from US7507739B2, “6-[(substituted)phenyl]triazolopyrimidines as anticancer agents” (Wyeth, priority 2003, dated 2009).
Marks after values point to notes of the source that are not given here.

Tests used:
[1] = system: DLD1 Human Colon Carcinoma; assay: Human tumor xenograft test, DLD1; format: in vivo; settings: days 1, 5, 9, 13
HeLa cells = assay: Cell cycle analysis with HeLa cells; format: cell-based, human; settings: 18 hr
[2] = system: A549 Human Non-Small Cell Lung Carcinoma; assay: Human tumor xenograft test, A549; format: in vivo, athymic mice; settings: days 1, 5, 9, 13, 17, 21, 25, 29
Procedure: The ability of compounds of this invention to inhibit tumor growth in animals is studied in the athymic mouse xenograft standard pharmacological test. Female nu/nu mice in an outbred albino background are obtained from Charles River Laboratories (Wilmington, Mass.). Animals are injected subcutaneously on the flank with the desired tumor cell suspension. Several days later, mice with tumors of approximately 150 mm^3 are selected from those injected (staged) and randomly distributed into groups of 5-10. The day of staging is called day 0. Compounds of the invention, usually formulated in saline (exceptions are noted in tables), are administered to animals by intravenous injection or oral gavage on various schedules starting on day 0 or 1, as noted in the tables. The control group in each experiment is dosed with vehicle on the same schedule. Tumor size is measured every 3-7 days with calipers in two orthogonal dimensions, and tumor volume is calculated from the formula volume=[(length×width^2)/2].
Tumor/Control (T/C) is obtained by dividing the mean tumor volume of the treated group by the mean tumor volume of the control group on each measurement day. A treatment dose is defined as active if it produced a statistically significant T/C of 0.50 or less. A p value≦0.05, determined by one-side Student's t-test, is required for statistical significance. A treatment dose is defined as toxic if more than 10% of the animals died from a compound-related toxicity.

SMILES: CN(C)CCCOc1cc(F)c(-c2c(Cl)nc3ncnn3c2NCC(F)(F)F)c(F)c1.Cl [Example 4a, 5-Chloro-6-{4-[3-(dimethylamino)propoxy]-2,6-difluorophenyl}-N-(2,2,2-trifluoroethyl)[1,2,4]triazolo[1,5-a]pyrimidin-7-amine Hydrogen chloride Salt]
- T/C on day 0 ([1]; DLD1, 10 mg/kg IV): 1.00
- T/C on day 7 ([1]; DLD1, 10 mg/kg IV): 0.56
- T/C on day 14 ([1]; DLD1, 10 mg/kg IV): 0.68
- T/C on day 21 ([1]; DLD1, 10 mg/kg IV): 0.74
- T/C on day 0 ([1]; DLD1, 20 mg/kg IV): 1.00
- T/C on day 7 ([1]; DLD1, 20 mg/kg IV): 0.55
- T/C on day 14 ([1]; DLD1, 20 mg/kg IV): 0.44
- T/C on day 21 ([1]; DLD1, 20 mg/kg IV): 0.61
- T/C on day 0 ([1]; DLD1, 25 mg/kg IV): 1.00
- T/C on day 7 ([1]; DLD1, 25 mg/kg IV): 0.63
- T/C on day 14 ([1]; DLD1, 25 mg/kg IV): 0.49
- T/C on day 21 ([1]; DLD1, 25 mg/kg IV): 0.48
- Percent in Cell Cycle Phase >4N (HeLa cells; 20 nM): 2%
- Percent in Cell Cycle Phase Apop (HeLa cells; 20 nM): 6%
- Percent in Cell Cycle Phase G1 (HeLa cells; 20 nM): 60%
- Percent in Cell Cycle Phase G2/M (HeLa cells; 20 nM): 15%
- Percent in Cell Cycle Phase S (HeLa cells; 20 nM): 17%
- Percent in Cell Cycle Phase >4N (HeLa cells; 30 nM): 1%
- Percent in Cell Cycle Phase Apop (HeLa cells; 30 nM): 44%
- Percent in Cell Cycle Phase G1 (HeLa cells; 30 nM): 29%
- Percent in Cell Cycle Phase G2/M (HeLa cells; 30 nM): 15%
- Percent in Cell Cycle Phase S (HeLa cells; 30 nM): 12%
- Percent in Cell Cycle Phase >4N (HeLa cells; 40 nM): 2%
- Percent in Cell Cycle Phase Apop (HeLa cells; 40 nM): 65%
- Percent in Cell Cycle Phase G1 (HeLa cells; 40 nM): 8%
- Percent in Cell Cycle Phase G2/M (HeLa cells; 40 nM): 17%
- Percent in Cell Cycle Phase S (HeLa cells; 40 nM): 8%
- Percent in Cell Cycle Phase >4N (HeLa cells; 50 nM): 2%
- Percent in Cell Cycle Phase Apop (HeLa cells; 50 nM): 54%
- Percent in Cell Cycle Phase G1 (HeLa cells; 50 nM): 6%
- Percent in Cell Cycle Phase G2/M (HeLa cells; 50 nM): 29%
- Percent in Cell Cycle Phase S (HeLa cells; 50 nM): 9%
- Percent in Cell Cycle Phase >4N (HeLa cells; 60 nM): 2%
- Percent in Cell Cycle Phase Apop (HeLa cells; 60 nM): 64%
- Percent in Cell Cycle Phase G1 (HeLa cells; 60 nM): 13%
- Percent in Cell Cycle Phase G2/M (HeLa cells; 60 nM): 15%
- Percent in Cell Cycle Phase S (HeLa cells; 60 nM): 8%
- Percent in Cell Cycle Phase >4N (HeLa cells; 70 nM): 4%
- Percent in Cell Cycle Phase Apop (HeLa cells; 70 nM): 25%
- Percent in Cell Cycle Phase G1 (HeLa cells; 70 nM): 3%
- Percent in Cell Cycle Phase G2/M (HeLa cells; 70 nM): 60%
- Percent in Cell Cycle Phase S (HeLa cells; 70 nM): 8%
- Percent in Cell Cycle Phase >4N (HeLa cells; 80 nM): 5%
- Percent in Cell Cycle Phase Apop (HeLa cells; 80 nM): 20%
- Percent in Cell Cycle Phase G1 (HeLa cells; 80 nM): 5%
- Percent in Cell Cycle Phase G2/M (HeLa cells; 80 nM): 63%
- Percent in Cell Cycle Phase S (HeLa cells; 80 nM): 7%
- Percent in Cell Cycle Phase >4N (HeLa cells; 90 nM): 5%
- Percent in Cell Cycle Phase Apop (HeLa cells; 90 nM): 22%
- Percent in Cell Cycle Phase G1 (HeLa cells; 90 nM): 5%
- Percent in Cell Cycle Phase G2/M (HeLa cells; 90 nM): 59%
- Percent in Cell Cycle Phase S (HeLa cells; 90 nM): 10%
- Percent in Cell Cycle Phase >4N (HeLa cells; 100 nM): 5%
- Percent in Cell Cycle Phase Apop (HeLa cells; 100 nM): 23%
- Percent in Cell Cycle Phase G1 (HeLa cells; 100 nM): 7%
- Percent in Cell Cycle Phase G2/M (HeLa cells; 100 nM): 57%
- Percent in Cell Cycle Phase S (HeLa cells; 100 nM): 9%
- Percent in Cell Cycle Phase >4N (HeLa cells; 110 nM): 5%
- Percent in Cell Cycle Phase Apop (HeLa cells; 110 nM): 23%
- Percent in Cell Cycle Phase G1 (HeLa cells; 110 nM): 6%
- Percent in Cell Cycle Phase G2/M (HeLa cells; 110 nM): 56%
- Percent in Cell Cycle Phase S (HeLa cells; 110 nM): 10%
- Percent in Cell Cycle Phase >4N (HeLa cells; 120 nM): 4%
- Percent in Cell Cycle Phase Apop (HeLa cells; 120 nM): 27%
- Percent in Cell Cycle Phase G1 (HeLa cells; 120 nM): 7%
- Percent in Cell Cycle Phase G2/M (HeLa cells; 120 nM): 53%
- Percent in Cell Cycle Phase S (HeLa cells; 120 nM): 10%
- T/C on day 0 ([2]; A549, 10 mg/kg IV): 0.98
- T/C on day 7 ([2]; A549, 10 mg/kg IV): 0.81
- T/C on day 14 ([2]; A549, 10 mg/kg IV): 0.74
- T/C on day 21 ([2]; A549, 10 mg/kg IV): 0.68
- T/C on day 27 ([2]; A549, 10 mg/kg IV): 0.80
- T/C on day 35 ([2]; A549, 10 mg/kg IV): 0.79
- T/C on day 0 ([2]; A549, 20 mg/kg IV): 0.99
- T/C on day 7 ([2]; A549, 20 mg/kg IV): 0.86
- T/C on day 14 ([2]; A549, 20 mg/kg IV): 0.80
- T/C on day 21 ([2]; A549, 20 mg/kg IV): 0.72
- T/C on day 27 ([2]; A549, 20 mg/kg IV): 0.78
- T/C on day 35 ([2]; A549, 20 mg/kg IV): 0.77
- T/C on day 0 ([2]; A549, 40 mg/kg IV): 0.97
- T/C on day 7 ([2]; A549, 40 mg/kg IV): 0.71
- T/C on day 14 ([2]; A549, 40 mg/kg IV): 0.53**
- T/C on day 21 ([2]; A549, 40 mg/kg IV): 0.46**
- T/C on day 27 ([2]; A549, 40 mg/kg IV): 0.52**
- T/C on day 35 ([2]; A549, 40 mg/kg IV): 0.47**
